Measured values as given in paper PMC7248880, “Preclinical Incorporation Dosimetry of [^18F]FACH—A Novel ^18F-Labeled MCT1/MCT4 Lactate Transporter Inhibitor for Imaging Cancer Metabolism with PET” (Molecules, 2020).

Assay: Preclinical incorporation dosimetry: whole-body PET/CT in piglets, scaled to human, OLINDA 2.1, ICRP103
Format: in vivo, juvenile pigs
Method: Three piglets (age: ~6 weeks, weight: ~13–15 kg) were fasted on the day of imaging and received an intranuscular. injection of 1 mL azaperone and 4 mL ketamine to introduce anesthesia. […] During narcosis, the animals maintained spontaneous respiration and no mandatory ventilation was applied. The subjects were sequentially imaged after an iv injection (contralateral ear vein) of 156 ± 54 MBq [^18F]FACH (0.63 ± 0.49 µg) in a PET/CT system (Biograph16, SIEMENS, Erlangen, Germany). The piglets were positioned prone with legs alongside the body on a custom-made plastic trough including a piglet head-holder (Figure 5). The PET acquisition was divided into a sequential (4 × 9 min, 3 × 12 min) and a static part (1 × 24 min, 1 × 30 min, 1 × 36 min), each of which was preceded by a low-dose CT to acquire structural data for attenuation correction (AC) and anatomical orientation (Figure 6). Post mortem, the urine was collected by bladder punctuation, weighted, and divided into three 1 mL samples for activity measurements in a gamma-counter (Packard Cobra II 5003 Auto Gamma Counting System, GMI, Ramsey, MN, USA).
PET data reconstruction was done using low-dose CT attenuation correction (AC) and an iterative OSEM algorithm with 4 iterations and 8 subsets. As the PET/CT system is in daily clinical use, it is periodically subjected to detector normalization and activity calibration. Furthermore, all peripheral activity-measuring devices to be used for the investigation (dose calibrator, gamma counter) are cross-calibrated in terms of timing and a radioactivity adjustment.
The image data were analyzed with ROVER (ABX, Radeberg, Germany; v. 3.0.46h). The organs were identified and manually delineated using 3D volumes of interest (VOI). The CT data were used for anatomical orientation and for image registration with the PET data. Relevant source organs like brain, gall bladder, large intestine, small intestine, stomach, heart, kidneys, liver, lungs, pancreas, red marrow (backbone, pelvis, sternum), spleen, thyroid, testes, skeleton (bone), and the urinary bladder were delineated and the time–activity data transformed into percentage of injected dose (%IDorgan) with Equation (2). (2) %IDorgant=Aorgant×cscant/A0t [%] where Aorgant is the activity in the organ at the time t; cscant is a calibration factor representing the theoretical body activity (derived from a whole body mask of a volume that equals the body dimentions of the animal) decay corrected to t and divided by the imaged body activity in each image frame at the time t, and A0t is the injected activity decay corrected to t0.
The dose calculation has been described by our group in detail before. Briefly, due to differences in weight, size, and metabolic rates between the animal species and the human volunteers, it is necessary to map the preclinical extracted biodistribution data to human circumstances. Thus, the animal biokinetic data (time scale and %ID values) were adapted to the human circumstances according to [22] to fit the human weight, size, and metabolic rates (Equations (3) and (4)). (3) thuman=tanimal[mhuman/manimal]^0.25 (4) [%ID]/organhuman=[%ID]/ganimal×mTBanimal[g]/mTBhuman[g]×morganhuman[g]
The TIACs were estimated by exponential fitting and the dosimetry estimation was performed using OLINDA/EXM software (v. 2.1). Finally, organ doses (OD) were estimated and multiplied by tissue weighting factors as published in ICRP103 [20].

[1] = mean of three piglets, ICRP103 wT
[2] = mean of three piglets, adult male model
[3] = mean ± SD, three piglets, ICRP103 wT

CCCN(CCC[18F])c1ccc(/C=C(\C#N)C(=O)O)c(OC)c1 [[^18F]FACH, (E)-2-cyano-3-{4-[(3-[^18F]fluoropropyl)(propyl)amino]-2-methoxyphenyl}acrylic acid]
Effective dose contribution HT wT, Heart Wall (FACHpig3): 8.18E-05 mSv/MBq | Effective dose contribution HT wT, Kidneys (FACHpig3): 2.59E-04 mSv/MBq | Effective dose contribution HT wT, Left colon (FACHpig3): 5.06E-04 mSv/MBq | Effective dose contribution HT wT, Liver (FACHpig3): 1.37E-03 mSv/MBq | Effective dose contribution HT wT, Lungs (FACHpig3): 9.15E-04 mSv/MBq | Effective dose contribution HT wT, Osteogenic Cells (FACHpig3): 2.03E-04 mSv/MBq | Effective dose contribution HT wT, Pancreas (FACHpig3): 7.24E-05 mSv/MBq | Effective dose contribution HT wT, Prostate (FACHpig3): 5.95E-05 mSv/MBq | Effective dose contribution HT wT, Rectum (FACHpig3): 2.92E-04 mSv/MBq | Effective dose contribution HT wT, Red Marrow (FACHpig3): 1.47E-03 mSv/MBq | Effective dose contribution HT wT, Right colon (FACHpig3): 9.75E-04 mSv/MBq | Effective dose contribution HT wT, Salivary Glands (FACHpig3): 6.33E-05 mSv/MBq | Effective dose contribution HT wT, Small Intestine (FACHpig3): 9.09E-05 mSv/MBq | Effective dose contribution HT wT, Spleen (FACHpig3): 7.43E-05 mSv/MBq | Effective dose contribution HT wT, Stomach Wall (FACHpig3): 9.98E-04 mSv/MBq | Effective dose contribution HT wT, Testes (FACHpig3): 2.90E-04 mSv/MBq | Effective dose contribution HT wT, Thymus (FACHpig3): 6.50E-05 mSv/MBq | Effective dose contribution HT wT, Thyroid (FACHpig3): 2.77E-04 mSv/MBq | Effective dose contribution HT wT, Total Body (FACHpig3): 0.00E+00 mSv/MBq | Effective dose contribution HT wT, Urinary Bladder Wall (FACHpig3): 3.52E-03 mSv/MBq | Organ equivalent dose HT, Adrenals (FACHpig3): 1.47E-02 mSv/MBq | Organ equivalent dose HT, Brain (FACHpig3): 4.10E-03 mSv/MBq | Organ equivalent dose HT, Esophagus (FACHpig3): 8.11E-03 mSv/MBq | Organ equivalent dose HT, Eyes (FACHpig3): 5.63E-03 mSv/MBq | Organ equivalent dose HT, Gallbladder Wall (FACHpig3): 8.72E-02 mSv/MBq | Organ equivalent dose HT, Heart Wall (FACHpig3): 8.86E-03 mSv/MBq | Organ equivalent dose HT, Kidneys (FACHpig3): 2.81E-02 mSv/MBq | Organ equivalent dose HT, Left colon (FACHpig3): 1.04E-02 mSv/MBq | Organ equivalent dose HT, Liver (FACHpig3): 3.42E-02 mSv/MBq | Organ equivalent dose HT, Lungs (FACHpig3): 7.62E-03 mSv/MBq | Organ equivalent dose HT, Osteogenic Cells (FACHpig3): 2.03E-02 mSv/MBq | Organ equivalent dose HT, Pancreas (FACHpig3): 7.85E-03 mSv/MBq | Organ equivalent dose HT, Prostate (FACHpig3): 1.29E-02 mSv/MBq | Organ equivalent dose HT, Rectum (FACHpig3): 1.27E-02 mSv/MBq | Organ equivalent dose HT, Red Marrow (FACHpig3): 1.22E-02 mSv/MBq | Organ equivalent dose HT, Right colon (FACHpig3): 2.01E-02 mSv/MBq | Organ equivalent dose HT, Salivary Glands (FACHpig3): 6.33E-03 mSv/MBq | Organ equivalent dose HT, Small Intestine (FACHpig3): 9.84E-03 mSv/MBq | Organ equivalent dose HT, Spleen (FACHpig3): 8.05E-03 mSv/MBq | Organ equivalent dose HT, Stomach Wall (FACHpig3): 8.32E-03 mSv/MBq | Organ equivalent dose HT, Testes (FACHpig3): 7.26E-03 mSv/MBq | Organ equivalent dose HT, Thymus (FACHpig3): 7.04E-03 mSv/MBq | Organ equivalent dose HT, Thyroid (FACHpig3): 6.93E-03 mSv/MBq | Organ equivalent dose HT, Total Body (FACHpig3): 8.63E-03 mSv/MBq | Organ equivalent dose HT, Urinary Bladder Wall (FACHpig3): 8.80E-02 mSv/MBq | ED Contr., Adrenals [1]: 1.31 × 10^−4 mSv/MBq | ED Contr., Brain [1]: 4.69 × 10^−5 mSv/MBq | ED Contr., Esophagus [1]: 3.61 × 10^−4 mSv/MBq | ED Contr., Eyes [1]: 0.00 mSv/MBq | ED Contr., Gall Bladder Wall [1]: 4.65 × 10^−4 mSv/MBq | ED Contr., Heart Wall [1]: 8.72 × 10^−5 mSv/MBq | ED Contr., Kidneys [1]: 2.42 × 10^−4 mSv/MBq | ED Contr., Left Colon [1]: 6.63 × 10^−4 mSv/MBq | ED Contr., Liver [1]: 9.34 × 10^−4 mSv/MBq | ED Contr., Lungs [1]: 9.46 × 10^−4 mSv/MBq | ED Contr., Osteogenic Cells [1]: 2.12 × 10^−4 mSv/MBq | ED Contr., Pancreas [1]: 2.81 × 10^−4 mSv/MBq | ED Contr., Prostate [1]: 6.01 × 10^−5 mSv/MBq | ED Contr., Rectum [1]: 3.18 × 10^−4 mSv/MBq | ED Contr., Red Marrow [1]: 1.67 × 10^−3 mSv/MBq | ED Contr., Right Colon [1]: 1.16 × 10^−3 mSv/MBq | ED Contr., Salivary Glands [1]: 7.90 × 10^−5 mSv/MBq | ED Contr., Small Intestine [1]: 1.71 × 10^−4 mSv/MBq | ED Contr., Spleen [1]: 8.37 × 10^−5 mSv/MBq | ED Contr., Stomach Wall [1]: 1.31 × 10^−3 mSv/MBq | ED Contr., Testes [1]: 3.38 × 10^−4 mSv/MBq | ED Contr., Thymus [1]: 7.69 × 10^−5 mSv/MBq | ED Contr., Thyroid [1]: 2.83 × 10^−4 mSv/MBq | ED Contr., Total Body [1]: 0.00 mSv/MBq | ED Contr., Urinary Bladder Wall [1]: 2.50 × 10^−3 mSv/MBq | OD, Adrenals [2]: 1.42 × 10^−2 mSv/MBq | OD, Brain [2]: 4.69 × 10^−3 mSv/MBq | OD, Esophagus [2]: 9.03 × 10^−3 mSv/MBq | OD, Eyes [2]: 6.91 × 10^−3 mSv/MBq | OD, Gall Bladder Wall [2]: 5.04 × 10^−2 mSv/MBq | OD, Heart Wall [2]: 9.46× 10^−3 mSv/MBq | OD, Kidneys [2]: 2.62 × 10^−2 mSv/MBq | OD, Left Colon [2]: 1.37 × 10^−2 mSv/MBq | OD, Liver [2]: 2.33 × 10^−2 mSv/MBq | OD, Lungs [2]: 7.88 × 10^−3 mSv/MBq | OD, Osteogenic Cells [2]: 2.12 × 10^−2 mSv/MBq | OD, Pancreas [2]: 3.05 × 10^−2 mSv/MBq | OD, Prostate [2]: 1.30 × 10^−2 mSv/MBq | OD, Rectum [2]: 1.38 × 10^−2 mSv/MBq | OD, Red Marrow [2]: 1.39 × 10^−2 mSv/MBq | OD, Right Colon [2]: 2.40 × 10^−2 mSv/MBq | OD, Salivary Glands [2]: 7.90 × 10^−3 mSv/MBq | OD, Small Intestine [2]: 1.84 × 10^−2 mSv/MBq | OD, Spleen [2]: 9.08 × 10^−3 mSv/MBq | OD, Stomach Wall [2]: 1.09 × 10^−2 mSv/MBq | OD, Testes [2]: 8.45 × 10^−3 mSv/MBq | OD, Thymus [2]: 8.33 × 10^−3 mSv/MBq | OD, Thyroid [2]: 7.08 × 10^−3 mSv/MBq | OD, Total Body [2]: 9.76 × 10^−3 mSv/MBq | OD, Urinary Bladder Wall [2]: 6.26 × 10^−2 mSv/MBq | organ dose, gall bladder (mean ± SD, three piglets): 50.4 ± 37.5 µSv/MBq | organ dose, kidneys (mean ± SD, three piglets): 26.2 ± 2.2 µSv/MBq | organ dose, liver (mean ± SD, three piglets): 23.3 ± 13.6 µSv/MBq | organ dose, pancreas (mean ± SD, three piglets): 30.5 ± 27.3 µSv/MBq | organ dose, right colon (mean ± SD, three piglets): 24.0 ± 7.4 µSv/MBq | organ dose, urinary bladder (mean ± SD, three piglets): 62.6 ± 28.9 µSv/MBq | contribution to the ED, lungs [3]: 0.9 ± 0.05 µSv/MBq | contribution to the ED, red marrow [3]: 1.7 ± 0.3 µSv/MBq | contribution to the ED, right colon [3]: 1.2 ± 0.4 µSv/MBq | contribution to the ED, stomach [3]: 1.3 ± 0.4 µSv/MBq | contribution to the ED, urinary bladder [3]: 2.5 ± 1.1 µSv/MBq | ED to humans, preclinical (piglet biokinetic data, ICRP103 wT): 12.4 µSv/MBq | ED to humans, corrected (~300 MBq iv, corrected for up to 40% underestimation): about 6.2 mSv
